Measurements reported in patent US12565497B2 (Hoffmann-La Roche Inc., priority 2020, dated 2026).

Target: Recombinant human Mat2a (Homo sapiens (Human), UniProt P31153)
Experiment: Determination of Mat2A activity (384 well absorbance-based assay, Biomol Green)
Format: biochemical
Settings: 12.5 nM Mat2A, 100 μM ATP and Methionine, 2% DMSO, 120 minutes at RT, absorbance at 635 nm; read-out: MAT2A_LEC IC50 (uM) (Num)
Method: Determination of Mat2A Activity
Measurement of Mat2A inhibition is performed in 384 well format absorbance-based assay. Recombinant human Mat2a (12.5 nM) and serial diluted compounds in DMSO (range of concentrations from 10 μM to 508 pM) or controls (DMSO) are incubated for 15 minutes at room temperature (RT) in assay buffer containing 50 mM HEPES pH 7.5, 50 mM KCl, 50 mM MgCl2, 0.01%Tween 20 and 10 mM DTT. The reaction is initiated by the addition of the combined substrates ATP and Methionine, each at a final concentration of 100 μM. Final assay condition are 12.5 nM Mat2A, 100 μM ATP and Methionine Substrates and 2% DMSO. After 120 minutes of incubation at RT, the reaction is stopped by the addition of Biomol Green. The absorbance signal is measured at λ=635 nm with a multiplate reader (BMG Pherastar reader or equivalent) after 30 min of equilibration at RT.

Recombinant human Mat2a, sequence (P31153 whole entry): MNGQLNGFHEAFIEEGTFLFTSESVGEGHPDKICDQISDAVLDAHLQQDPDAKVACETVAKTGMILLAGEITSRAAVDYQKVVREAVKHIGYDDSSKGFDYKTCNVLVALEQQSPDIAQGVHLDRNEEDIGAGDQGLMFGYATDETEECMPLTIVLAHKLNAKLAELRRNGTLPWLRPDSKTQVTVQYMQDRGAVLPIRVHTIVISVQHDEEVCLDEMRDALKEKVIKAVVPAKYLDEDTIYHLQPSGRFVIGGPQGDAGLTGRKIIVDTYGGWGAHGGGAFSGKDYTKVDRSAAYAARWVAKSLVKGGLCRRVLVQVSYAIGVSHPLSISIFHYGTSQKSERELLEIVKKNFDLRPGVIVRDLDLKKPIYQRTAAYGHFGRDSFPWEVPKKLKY

IC50 [µM]	SMILES
< 0.013	CCS(=O)(=O)c1ccc(-c2c(C#N)ncc3[nH]nc(C4CC4)c23)cc1C [Example 42, 3-cyclopropyl-4-(4-ethylsulfonyl-3-methyl-phenyl)-1H-pyrazolo[3,4-c]pyridine-5-carbonitrile]
< 0.013	Cc1cc(-c2c(C#N)ncc3[nH]nc(C4CC4)c23)ccc1S(=O)(=O)C1CC1 [Example 43, 3-cyclopropvl-4-(4-cyclopropylsulfonyl-3-methyl-phenyl)-1H-pyrazolo[3,4-c]pyridine-5-carbonitrile]
0.017	Cc1cc(-c2c(S(C)(=O)=O)ccc3[nH]nc(C(F)(F)F)c23)ccc1S(C)(=O)=O [Example 44, 4-(3-methyl-4-(methylsulfonyl)phenyl)-5-(methylsulfonyl)-3-(trifluoromethyl)-1H-indazole]
0.02	Cc1cc(-c2c(C#N)ccc3[nH]cc(C4CC4)c23)ccc1S(C)(=O)=O [Example 45, 3-cyclopropyl-4-(3-methyl-4-methylsulfonylphenyl)-1H-indole-5-carbonitrile]
0.017	Cc1cc(-c2c(C#N)ncc3[nH]nc(C4CC4)c23)c(F)cc1S(C)(=O)=O [Example 47, 3-cyclopropyl-4-(2-fluoro-5-methyl-4-methylsulfonyl-phenyl)-1H-pyrazolo[3,4-c]pyridine-5-carbonitrile]
0.13	CN(C)S(=O)(=O)c1ccc(-c2nccc3[nH]nc(OC(F)F)c23)cc1C(F)F [Example 48, 4-[3-(difluoromethoxy)-1H-pyrazolo[4,3-c]pyridin-4-yl]-2-(difluoromethvl)-N,N-dimethyl-benzenesulfonamide]
< 0.013	Cc1cc(-c2c(C#N)ncc3[nH]nc(C4CC4)c23)ccc1S(=O)(=O)C(F)F [Example 50, 3-cyclopropyl-4-[4-(difluoromethylsulfonyl)-3-methyl-phenyl]-1H-pyrazolo[3,4-c]pyridine-5-carbonitrile]
< 0.013	CNC(=O)c1ncc2[nH]nc(C3CC3)c2c1-c1ccc(S(C)(=O)=O)c(C(F)F)c1 [Example 51, 3-cyclopropyl-4-[3-(difluoromethyl)-4-methylsulfonyl-phenyl]-N-methyl-1H-pyrazolo[3,4-c]pyridine-5-carboxamide]
< 0.013	Cc1cc(-c2c(C#N)ncc3[nH]nc(OC(F)F)c23)ccc1S(C)(=O)=O [Example 52, 3-(difluoromethoxy)-4-(3-methyl-4-methylsulfonyl-phenyl)-1H-pyrazolo[3,4-c]pyridine-5-carbonitrile]
0.062	Cc1cc([S+](C)[O-])c(C(F)F)cc1-c1c(C#N)ncc2[nH]nc(OC(F)F)c12 (stereo not shown) [Example 53, 3-(difluoromethoxy)-4-[5-(difluoromethyl)-2-methyl-4-methylsulfinyl-phenyl]-1H-pyrazolo[3,4-c]pyridine-5-carbonitrile]
0.015	COc1ncc2[nH]nc(C(F)(F)F)c2c1-c1ccc(S(C)(=O)=O)c(C(F)F)c1 [Example 54, 4-[3-(difluoromethyl)-4-methylsulfonyl-phenyl]-5-methoxy-3-(trifluoromethyl)-1H-pyrazolo[3,4-c]pyridine]
< 0.013	Cc1cc(-c2c(S(C)(=O)=O)ccc3[nH]nc(OC(F)F)c23)ccc1S(=O)(=O)C1CC1 [Example 55, 4-(4-cyclopropylsulfonyl-3-methyl-phenyl)-3-(difluoromethoxy)-5-methylsulfonyl-1H-indazole]
0.19	Cc1cc(-c2nccc3[nH]nc(Br)c23)ccc1S(C)(=O)=O [Example 56, 3-bromo-4-(3-methyl-4-(methylsulfonyl)phenyl)-1H-pyrazolo[4,3-c]pyridine]
< 0.013	Cc1cc(-c2nccc3[nH]nc(OC(F)F)c23)ccc1S(C)(=O)=O [Example 57, 3-(difluoromethoxy)-4-(3-methyl-4-(methylsulfonyl)phenyl)-1H-pyrazolo[4,3-c]pyridinepyridine]
0.24	COc1n[nH]c2ccnc(-c3ccc(S(C)(=O)=O)c(C)c3)c12 [Example 58, 3-methoxy-4-(3-methyl-4-(methylsulfonyl)phenyl)-1H-pyrazolo[4,3-c]pyridine]
0.26	CS(=O)(=O)c1ccc(-c2nccc3[nH]nc(C4CC4)c23)cc1N [Example 59, 5-(3-cyclopropyl-1H-pyrazolo[4,3-c]pyridin-4-yl)-2-(methylsulfonyl)aniline]
0.29	Cc1cc(-c2nccc3[nH]nc(S(C)(=O)=O)c23)ccc1S(C)(=O)=O [Example 60, 4-(3-methyl-4-(methylsulfonyl)phenyl)-3-(methylsulfonyl)-1H-pyrazolo[4,3-c]pyridine]
0.25	Cc1cc(-c2nccc3[nH]nc(C#N)c23)ccc1S(C)(=O)=O [Example 61, 4-(3-methyl-4-(methylsulfonyl)phenyl)-1H-pyrazolo[4,3-c]pyridine-3-carbonitrile]

IC50 [µM]	SMILES
< 0.013	Cc1cc(-c2c(C(=O)O)ncc3[nH]nc(C4CC4)c23)ccc1S(C)(=O)=O [Example 62, 3-cyclopropyl-4-(3-methyl-4-(methylsulfonyl)phenyl)-1H-pyrazolo[3,4-c]pyridine-5-carboxylic acid]
< 0.013	Cc1cc(-c2c(C#N)ccc3[nH]nc(C4CC4)c23)ccc1S(C)(=O)=O [Example 63, 3-cyclopropyl-4-(3-methyl-4-methylsulfonylphenyl)-1H-indazole-5-carbonitrile]
0.2	Cc1cc(-c2ncc(O)c3[nH]nc(C4CC4)c23)ccc1S(C)(=O)=O [Example 64, 3-cyclopropyl-4-(3-methyl-4-methylsulfonyl-phenyl)-1H-pyrazolo[4,3-c]pyridin-7-ol]
0.52	Cc1cc(-c2nccc3[nH]nc(-c4ccsc4)c23)ccc1S(C)(=O)=O [Example 65, 4-(3-methyl-4-(methylsulfonyl)phenyl)-3-(thiophen-3-yl)-1H-pyrazolo[4,3-c]pyridine]
0.13	CCOc1n[nH]c2ccnc(-c3ccc(S(C)(=O)=O)c(C)c3)c12 [Example 66, 3-ethoxy-4-(3-methyl-4-methylsulfonyl-phenyl)-1H-pyrazolo[4,3-c]pyridine]
0.025	Cc1cc(-c2ncc(F)c3[nH]nc(C4CC4)c23)ccc1S(C)(=O)=O [Example 67, 3-cyclopropyl-7-fluoro-4-(3-methyl-4-methylsulfonyl-phenyl)-1H-pyrazolo[4,3-c]pyridine]
< 0.013	COc1n[nH]c2ccc(C#N)c(-c3ccc(S(C)(=O)=O)c(C)c3)c12 [Example 68, 3-methoxy-4-(3-methyl-4-(methylsulfonyl)phenyl)-1H-indazole-5-carbonitrile]
< 0.013	Cc1cc(-c2c(C#N)ccc3[nH]nc(OC(F)F)c23)ccc1S(C)(=O)=O [Example 69, 3-(difluoromethoxy)-4-(3-methyl-4-(methylsulfonyl)phenyl)-1H-indazole-5-carbonitrile]
0.061	COc1cc2[nH]nc(C3CC3)c2c(-c2ccc(S(C)(=O)=O)c(C)c2)n1 [Example 70, 3-cyclopropyl-6-methoxy-4-(3-methyl-4-methylsulfonylphenyl)-1H-pyrazolo[4,3-c]pyridine]
< 0.013	Cc1cc(-c2nccc3[nH]nc(OC(F)(F)F)c23)ccc1S(C)(=O)=O [Example 71, 4-(3-methyl-4-(methylsulfonyl)phenyl)-3-(trifluoromethoxy)-1H-pyrazolo[4,3-c]pyridine]
< 0.013	Cc1cc(-c2c(C(N)=O)ncc3[nH]nc(C4CC4)c23)ccc1S(C)(=O)=O [Example 72, 3-cyclopropyl-4-(3-methyl-4-(methylsulfonyl)phenyl)-1H-pyrazolo[3,4-c]pyridine-5-carboxamide]
< 0.013	CNC(=O)c1ncc2[nH]nc(C3CC3)c2c1-c1ccc(S(C)(=O)=O)c(C)c1 [Example 73]
0.11	Cc1cc(-c2nncc3[nH]nc(C4CC4)c23)ccc1S(C)(=O)=O [Example 74, 3-cyclopropyl-4-(3-methyl-4-(methylsulfonyl)phenyl)-1H-pyrazolo[3,4-d]pyridazine]
0.013	CSc1ccc2[nH]nc(C3CC3)c2c1-c1ccc(S(C)(=O)=O)c(C)c1 [Example 75, 3-cyclopropyl-4-(3-methyl-4-(methylsulfonyl)phenyl)-5-(methylthio)-1H-indazole]
0.26	Cc1cc(-c2c([S+](C)[O-])ccc3[nH]nc(C4CC4)c23)ccc1S(C)(=O)=O (stereo not shown) [Example 76, 3-cyclopropyl-4-(3-methyl-4-(methylsulfonyl)phenyl)-5-(methylsulfinyl)-1H-indazole]
0.013	Cc1cc(-c2c(S(C)(=O)=O)ccc3[nH]nc(C4CC4)c23)ccc1S(C)(=O)=O [Example 77, 3-cyclopropyl-4-(3-methyl-4-(methylsulfonyl)phenyl)-5-(methylsulfonyl)-1H-indazole]
< 0.013	Cc1cc(-n2c(=O)ccc3[nH]nc(OC(F)F)c32)ccc1S(C)(=O)=O [Example 78, 3-(difluoromethoxy)-4-(3-methyl-4-methylsulfonyl-phenyl)-1H-pyrazolo[4,3-b]pyridin-5-one]
< 0.013	Cc1cc(-c2c(C(F)(F)F)ncc3[nH]nc(C4CC4)c23)ccc1S(C)(=O)=O [Example 79, 3-cyclopropyl-4-(3-methyl-4-methylsulfonylphenyl)-5-(trifluoromethyl)-1H-pyrazolo[3,4-c]pyridine]

SMILES	IC50 [µM]
CNC(=O)c1ncc2[nH]nc(C3CC3)c2c1-c1ccc(S(=O)(=O)C2CC2)c(C)c1 [Example 46, 3-cyclopropyl-4-(4-cyclopropylsulfonyl-3-methyl-phenyl)-N-methyl-1H-pyrazolo[3,4-c]pyridine-5-carboxamide]	< 0.013
